Laboratory results as given in patent US10683269B2 (MISSION THERAPEUTICS LIMITED, priority 2016, dated 2020).

Target: T1, USP7 (Homo sapiens, UniProt Q93009)
T1 construct: The USP7 construct was PCR amplified and cloned into a pFLAG-CMV-6a vector (Sigma-Aldrich) with an N-terminal FLAG tag; made in house; host or cells: HEK293T
Test: USP7 biochemical IC50 assay (fluorescence polarisation, TAMRA labelled peptide linked to ubiquitin via an iso-peptide bond)
Settings: 30 min pre-incubation of enzyme and compound, read after 2 hr incubation at room temperature, read-out: IC50 range
Outline: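 Fluorescence polarisation at 540 nm excitation/590 nm emission, read immediately and after 2 hr at room temperature, following addition of 50 nM TAMRA-labelled iso-peptide ubiquitin substrate.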

T1 sequence (Q93009 whole entry): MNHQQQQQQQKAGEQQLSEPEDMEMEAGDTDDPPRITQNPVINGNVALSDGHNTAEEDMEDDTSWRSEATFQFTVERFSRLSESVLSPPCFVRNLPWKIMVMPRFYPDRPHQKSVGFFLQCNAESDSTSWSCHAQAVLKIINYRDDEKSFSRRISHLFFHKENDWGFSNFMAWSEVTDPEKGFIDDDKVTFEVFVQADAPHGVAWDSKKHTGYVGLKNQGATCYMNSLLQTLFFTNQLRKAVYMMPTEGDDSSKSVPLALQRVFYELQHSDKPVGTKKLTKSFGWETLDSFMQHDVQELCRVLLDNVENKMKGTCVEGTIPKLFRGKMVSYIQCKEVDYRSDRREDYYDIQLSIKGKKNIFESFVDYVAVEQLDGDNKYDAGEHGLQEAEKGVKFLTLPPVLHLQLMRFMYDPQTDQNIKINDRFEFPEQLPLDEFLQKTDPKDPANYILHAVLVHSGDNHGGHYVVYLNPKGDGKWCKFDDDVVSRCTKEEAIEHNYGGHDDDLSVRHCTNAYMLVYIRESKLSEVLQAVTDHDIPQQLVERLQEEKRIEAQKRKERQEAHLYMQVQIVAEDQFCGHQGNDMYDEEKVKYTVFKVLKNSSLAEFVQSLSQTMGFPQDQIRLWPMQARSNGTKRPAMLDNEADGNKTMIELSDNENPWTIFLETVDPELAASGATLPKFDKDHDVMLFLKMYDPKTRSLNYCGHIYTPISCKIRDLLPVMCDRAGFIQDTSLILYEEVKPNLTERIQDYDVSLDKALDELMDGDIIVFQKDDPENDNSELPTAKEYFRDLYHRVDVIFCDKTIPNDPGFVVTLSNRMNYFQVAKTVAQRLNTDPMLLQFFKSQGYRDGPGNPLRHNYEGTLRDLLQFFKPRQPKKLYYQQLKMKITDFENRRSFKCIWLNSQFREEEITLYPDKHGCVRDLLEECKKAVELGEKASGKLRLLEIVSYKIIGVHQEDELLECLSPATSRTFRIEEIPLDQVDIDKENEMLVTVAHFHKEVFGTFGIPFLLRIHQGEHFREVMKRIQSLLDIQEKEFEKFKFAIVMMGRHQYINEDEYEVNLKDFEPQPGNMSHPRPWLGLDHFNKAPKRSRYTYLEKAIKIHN

Row | SMILES | IC50 [nM]
1 | CC(=O)Nc1cc(-c2ccc(F)cc2)c2c(n1)CN(C#N)C2 [Example 249, N-(6-cyano-4-(4-fluorophenyl)-6,7-dihydro-5H-pyrrolo[3,4-b]pyridin-2-yl)acetamide] | 1000 to 10000
2 | N#CN1Cc2nc(NCC(O)CO)cc(-c3ccc(F)cc3)c2C1 (stereo not shown) [Example 250, 2-((2,3-dihydroxypropyl)amino)-4-(4-fluorophenyl)-5,7-dihydro-6H-pyrrolo[3,4-b]pyridine-6-carbonitrile] | 1000 to 10000
3 | CN(C)C(=O)Cc1cc2c(c(-c3ccccc3)c1)CN(C#N)C2 [Example 251, 2-(2-cyano-7-phenylisoindolin-5-yl)-N,N-dimethylacetamide] | 1000 to 10000
4 | CS(=O)(=O)CCc1cc2c(c(-c3ccccc3)c1)CN(C#N)C2 [Example 252, 6-(2-(methylsulfonyl)ethyl)-4-phenylisoindoline-2-carbonitrile] | 1000 to 10000
5 | CS(=O)(=O)Cc1cc2c(c(-c3ccccc3)c1)CN(C#N)C2 [Example 253, 6-((methylsulfonyl)methyl)-4-phenylisoindoline-2-carbonitrile] | 1000 to 10000
6 | COCCc1cc2c(c(-c3ccc(C#N)cc3)c1)CN(C#N)C2 [Example 254, 4-(4-cyanophenyl)-6-(2-methoxyethyl)isoindoline-2-carbonitrile] | 1000 to 10000
7 | COCCc1cc2c(c(-c3ccccc3C(N)=O)c1)CN(C#N)C2 [Example 255, 2-(2-cyano-6-(2-methoxyethyl)isoindolin-4-yl)benzamide] | 1000 to 10000
8 | N#Cc1ccc(-c2cc(CCc3cccnc3)cc3c2CN(C#N)C3)cc1 [Example 256, 4-(4-cyanophenyl)-6-(2-(pyridin-3-yl)ethyl)isoindoline-2-carbonitrile] | 1000 to 10000
9 | CC(=O)N1CCC(CCc2cc3c(c(-c4ccc(C#N)cc4)c2)CN(C#N)C3)CC1 [Example 257, 6-(2-(1-acetylpiperidin-4-yl)ethyl)-4-(4-cyanophenyl)isoindoline-2-carbonitrile] | 1000 to 10000
10 | N#Cc1ccc(-c2c(F)ccc3c2CN(C#N)C3)c(C(N)=O)c1 [Example 260, 5-cyano-2-(2-cyano-5-fluoroisoindolin-4-yl)benzamide] | 1000 to 10000
11 | N#Cc1ccc(-c2ccc(F)c3c2CN(C#N)C3)c(C(N)=O)c1 [Example 261, 5-cyano-2-(2-cyano-7-fluoroisoindolin-4-yl)benzamide] | 1000 to 10000
12 | CN1CC(c2cc3c(c(-c4ccccc4)c2)CN(C#N)C3)CCC1=O (stereo not shown) [Example 262, 6-(1-methyl-6-oxopiperidin-3-yl)-4-phenylisoindoline-2-carbonitrile] | 1000 to 10000
13 | Cn1cc(-c2cc3c(c(-c4ccccc4)c2)CN(C#N)C3)ccc1=O [Example 263, 6-(1-methyl-6-oxo-1,6-dihydropyridin-3-yl)-4-phenylisoindoline-2-carbonitrile] | 1000 to 10000
14 | N#Cc1ccc(-c2cc(NC(=O)C3CCOCC3)cc3c2CN(C#N)C3)cc1 [Example 264, N-(2-cyano-7-(4-cyanophenyl)isoindolin-5-yl)tetrahydro-2H-pyran-4-carboxamide] | 1000 to 10000
15 | CN1CC(C(=O)Nc2cc3c(c(-c4ccc(C#N)cc4)c2)CN(C#N)C3)CC1=O (stereo not shown) [Example 265, N-(2-cyano-7-(4-cyanophenyl)isoindolin-5-yl)-1-methyl-5-oxopyrrolidine-3-carboxamide] | 1000 to 10000
16 | CN1CC(C(=O)Nc2cc3c(c(-c4ccc(C#N)cc4)c2)CN(C#N)C3)CCC1=O (stereo not shown) [Example 266, N-(2-cyano-7-(4-cyanophenyl)isoindolin-5-yl)-1-methyl-6-oxopiperidine-3-carboxamide] | 1000 to 10000
17 | CN(C)CC(=O)Nc1cc2c(c(-c3ccc(C#N)cc3)c1)CN(C#N)C2 [Example 267, N-(2-cyano-7-(4-cyanophenyl)isoindolin-5-yl)-2-(dimethylamino)acetamide] | < 1000
18 | N#CN1Cc2cccc(N3C(=O)CCCC3=O)c2C1 [Example 268, 4-(2,6-dioxopiperidin-1-yl)isoindoline-2-carbonitrile] | 10000 to 30000
19 | CNc1cc2c(c(-c3ccc(C#N)cc3)c1)CN(C#N)C2 [Example 269, 4-(4-cyanophenyl)-6-(methylamino)isoindoline-2-carbonitrile] | 1000 to 10000
20 | CN(C)c1cc2c(c(-c3ccc(C#N)cc3)c1)CN(C#N)C2 [Example 270, 4-(4-cyanophenyl)-6-(dimethylamino)isoindoline-2-carbonitrile] | < 1000
21 | N#Cc1ccc(-c2cc(NCCO)cc3c2CN(C#N)C3)cc1 [Example 271, 4-(4-cyanophenyl)-6-((2-hydroxyethyl)amino)isoindoline-2-carbonitrile] | 1000 to 10000
22 | CC(C)Nc1cc2c(c(-c3ccc(C#N)cc3)c1)CN(C#N)C2 [Example 272, 4-(4-cyanophenyl)-6-(isopropylamino)isoindoline-2-carbonitrile] | 1000 to 10000

Row | SMILES | IC50 [nM]
23 | N#Cc1ccc(-c2cc(NC3CCS(=O)(=O)CC3)cc3c2CN(C#N)C3)cc1 [Example 273, 4-(4-cyanophenyl)-6-((1,1-dioxidotetrahydro-2H-thiopyran-4-yl)amino)isoindoline-2-carbonitrile] | 1000 to 10000
24 | N#Cc1ccc(-c2cc(NC3CCOCC3)cc3c2CN(C#N)C3)cc1 [Example 274, 4-(4-cyanophenyl)-6-((tetrahydro-2H-pyran-4-yl)amino)isoindoline-2-carbonitrile] | 1000 to 10000
25 | N#Cc1ccc(-c2cc(NCC3CCOCC3)cc3c2CN(C#N)C3)cc1 [Example 275, 4-(4-cyanophenyl)-6-(((tetrahydro-2H-pyran-4-yl)methyl)amino)isoindoline-2-carbonitrile] | < 1000
26 | Cn1nccc1CNc1cc2c(c(-c3ccc(C#N)cc3)c1)CN(C#N)C2 [Example 276, 4-(4-cyanophenyl)-6-(((1-methyl-1H-pyrazol-5-yl)methyl)amino)isoindoline-2-carbonitrile] | 1000 to 10000
27 | CCNc1cc2c(c(-c3ccc(C#N)cc3)c1)CN(C#N)C2 [Example 277, 4-(4-cyanophenyl)-6-(ethylamino)isoindoline-2-carbonitrile] | 1000 to 10000
28 | N#Cc1ccc(-c2cc(N3CCS(=O)(=O)CC3)cc3c2CN(C#N)C3)cc1 [Example 278, 4-(4-cyanophenyl)-6-(1,1-dioxidothiomorpholino)isoindoline-2-carbonitrile] | 1000 to 10000
29 | CCN(CC)c1cc2c(c(-c3ccc(C#N)cc3)c1)CN(C#N)C2 [Example 279, 4-(4-Cyanophenyl)-6-(diethylamino)isoindoline-2-carbonitrile] | 1000 to 10000
30 | N#Cc1ccc(-c2cc(NCC(O)CO)cc3c2CN(C#N)C3)cc1 (stereo not shown) [Example 280, 4-(4-Cyanophenyl)-6-((2,3-dihydroxypropyl)amino)isoindoline-2-carbonitrile] | 1000 to 10000
31 | N#Cc1ccc(-c2cc(NCC3CCOCC3)cc3c2CN(C#N)C3)c(C(N)=O)c1 [Example 281, 5-Cyano-2-(2-cyano-6-(((tetrahydro-2H-pyran-4-yl)methyl)amino)isoindolin-4-yl)benzamide] | 1000 to 10000
32 | N#CN1Cc2cc(NC[C@H](O)CO)cc(-c3ccc(F)cc3)c2C1 [Example 282, (S)-6((2,3-dihydroxypropyl)amino)-4-(4-fluorophenyl)isoindoline-2-carbonitrile] | 1000 to 10000
33 | N#Cc1ccccc1-c1cc(NC[C@H](O)CO)cc2c1CN(C#N)C2 [Example 283, (S)-4-(2-cyanophenyl)-6-((2,3-dihydroxypropyl)amino)isoindoline-2-carbonitrile] | < 1000
34 | COC(CO)CNc1cc2c(c(-c3ccc(C#N)cc3)c1)CN(C#N)C2 (stereo not shown) [Example 284, 4-(4-Cyanophenyl)-6-((3-hydroxy-2-methoxypropyl)amino)isoindoline-2-carbonitrile] | 1000 to 10000
35 | CN(C)c1cc2c(c(-c3ccc(C#N)cc3C(N)=O)c1)CN(C#N)C2 [Example 285, 5-Cyano-2-(2-cyano-6-(dimethylamino)isoindolin-4-yl)benzamide] | 1000 to 10000
36 | CC(O)CNc1cc2c(c(-c3ccc(C#N)cc3)c1)CN(C#N)C2 (stereo not shown) [Example 286, 4-(4-Cyanophenyl)-6-((2-hydroxypropyl)amino)isoindoline-2-carbonitrile] | 1000 to 10000
37 | CC(C)(O)CNc1cc2c(c(-c3ccc(C#N)cc3)c1)CN(C#N)C2 [Example 287, 4-(4-cyanophenyl)-6-((2-hydroxy-2-methylpropyl)amino)iso-indoline-2-carbonitrile] | 1000 to 10000
38 | COC(C)(O)CNc1cc2c(c(-c3ccc(C#N)cc3)c1)CN(C#N)C2 (stereo not shown) [Example 288, 4-(4-cyanophenyl)-6-((2-hydroxy-2-methoxypropyl)amino)iso-indoline-2-carbonitrile] | 1000 to 10000
39 | Cc1nc2c(c(-c3cccc(N4CCCC4=O)c3)n1)CN(C#N)C2 [Example 289, 2-methyl-4-(3-(2-oxopyrrolidin-1-yl)phenyl)-5,7-dihydro-6H-pyrrolo[3,4-d]pyrimidine-6-carbonitrile] | 1000 to 10000
40 | Cn1nccc1CNc1nc2c(c(-c3cccc(N4CCCC4=O)c3)n1)CN(C#N)C2 [Example 290, 2-(((1-methyl-1H-pyrazol-5-yl)methyl)amino)-4-(3-(2-oxopyrrolidin-1-yl)phenyl)-5,7-dihydro-6H-pyrrolo[3,4-d]pyrimidine-6-carbonitrile] | 1000 to 10000
41 | N#CN1Cc2nc(NCCO)nc(-c3cccc(N4CCCC4=O)c3)c2C1 [Example 291, 2-((2-hydroxyethyl)amino)-4-(3-(2-oxopyrrolidin-1-yl)phenyl)-5,7-dihydro-6H-pyrrolo[3,4-d]pyrimidine-6-carbonitrile] | < 1000
42 | N#CN1Cc2nc(NCCO)nc(-c3cccc(N4CCOC4=O)c3)c2C1 [Example 292, 2-((2-hydroxyethyl)amino)-4-(3-(2-oxooxazolidin-3-yl)phenyl)-5,7-dihydro-6H-pyrrolo[3,4-d]pyrimidine-6-carbonitrile] | < 1000
43 | CNC(=O)c1cc2c(c(-c3cc(OC)cnc3C#N)c1)CN(C#N)C2 [Example 293, 2-cyano-7-(2-cyano-5-methoxypyridin-3-yl)-N-methylisoindoline-5-carboxamide] | 1000 to 10000
